The source of these data is patent publication US11919897B2, “Inhibitors of human immunodeficiency virus replication” (VIIV HEALTHCARE UK (No. 5) LIMITED, priority 2018, dated 2024).

Broadly, the EC50 is the midpoint of the concentration-response curve. By CC50 is commonly meant the concentration that lowers cell viability or growth by half. Low readings indicate harm at low concentration, high ones better tolerance by the cells.

Assay type in all cases: cell-based
Data set [1] deals with recombinant NL4-3 virus (nef section replaced with Renilla luciferase gene) in MT-2 cells. The experiment in a line: HIV cell culture assay (antiviral activity, luciferase readout in infected MT-2 cells). The protocol:
HIV cell culture assay-MT-2 cells, 293T cells and the proviral DNA clone of NL4-3 virus were obtained from the NIH AIDS Research and Reference Reagent Program. MT-2 cells were propagated in RPMI 1640 media supplemented with 10% heat inactivated fetal bovine serum (FBS), 100 μg/ml penicillin G and up to 100 units/mL streptomycin. The 293T cells were propagated in DMEM media supplemented with 10% heat inactivated FBS, 100 μg/mL penicillin G and 100 μg/mL streptomycin. A recombinant NL4-3 proviral clone, in which a section of the nef gene was replaced with the Renilla luciferase gene, was used to make the reference virus used in these studies. The recombinant virus was prepared through transfection of the recombinant NL4-3 proviral clone into 293T cells using Transit-293 Transfection Reagent from Minis Bio LLC (Madison, WI). Supernatent was harvested after 2-3 days and the amount of virus present was titered in MT-2 cells using luciferase enzyme activity as a marker by measuring luciferase enzyme activity. Luciferase was quantitated using the EnduRen Live Cell Substrate from Promega (Madison, WI). Antiviral activities of compounds toward the recombinant virus were quantified by measuring luciferase activity in MT-2 cells infected for 4-5 days with the recombinant virus in the presence of serial dilutions of the compound.
The 50% effective concentration (EC50) was calculated by using the exponential form of the median effect equation where (Fa)=1/[1+(ED50/drug conc.)m] (Johnson V A, Byington R T. Infectivity Assay. In Techniques in HIV Research. ed. Aldovini A, Walker B D. 71-76. New York: Stockton Press. 1990).

Data set [2] is described as follows: Compound cytotoxicity, XTT-based colorimetric assay. The note with it: human; uninfected MT2 cells, day 4, XTT assay. The protocol:
(§1) Compound cytotoxicity and the corresponding CC50 values were determined using the same protocol as described in the antiviral assay except that uninfected cells were used. Cytotoxicity was assessed on day 4 in uninfected MT2 cells by using an XTT (2,3-bis[2-Methoxy-4-nitro-5-sulfophenyl]-2H-tetrazolium-5-carboxyanilide inner salt)-based colorimetric assay (Sigma-Aldrich, St Louis, Mo.).

The subject of data set [3] is uninfected MT2 cells. The description is as above. The note with it: day 4, XTT assay. The protocol:
as §1

[4] abbreviates: MT-2 cells infected for 4-5 days with recombinant NL4-3 Renilla luciferase virus, luciferase activity, read-out: EC50.

Like-named read-outs stand apart in the source and are kept apart here.

Regarding `Cn1nc(NS(C)(=O)=O)c2c(Cl)ccc(-n3c([C@H](Cc4cc(F)cc(F)c4)NC(=O)Cn4nc(C(F)F)c5c4C(F)(F)[C@@H]4C[C@H]54)nc4nc(OCc5ccccc5)ccc4c3=O)c21` (atropisomer, axis not shown; (P)) [Example 26, N—((S)-1-(7-(benzyloxy)-(3P)-3-(4-chloro-1-methyl-3-(methylsulfonamido)-1H-indazol-7-yl)-4-oxo-3,4-dihydropyrido[2,3-d]pyrimidin-2-yl)-2-(3,5-difluorophenyl)ethyl)-2-((3bS,4aR)-3-(difluoromethyl)-5,5-difluoro-3b,4,4a,5-tetrahydro-1H-cyclopropa[3,4]cyclopenta[1,2-c]pyrazol-1-yl)acetamide], the EC50 in data set [1] (Renilla, NL43) stood at 0.1 nM. Further, the CC50 at 4 days in data set [2] is more than 100 nM.

Regarding `CCCCOCCOc1ccc2c(=O)n(-c3ccc(Cl)c4c(NS(C)(=O)=O)nn(C)c34)c([C@H](Cc3cc(F)cc(F)c3)NC(=O)Cn3nc(C(F)F)c4c3C(F)(F)[C@@H]3C[C@H]43)nc2n1` (atropisomer, axis not shown; (P)) [Example 27, N—((S)-1-(7-(2-butoxyethoxy)-(3P)-3-(4-chloro-1-methyl-3-(methylsulfonamido)-1H-indazol-7-yl)-4-oxo-3,4-dihydropyrido[2,3-d]pyrimidin-2-yl)-2-(3,5-difluorophenyl)ethyl)-2-((3bS,4aR)-3-(difluoromethyl)-5,5-difluoro-3b,4,4a,5-tetrahydro-1H-cyclopropa[3,4]cyclopenta[1,2-c]pyrazol-1-yl)acetamide], the EC50 in data set [1] (Renilla, NL43) stood at 0.041 nM. Moreover, the CC50 at 4 days in data set [2] is more than 100 nM.

Consider `Cn1nc(NS(C)(=O)=O)c2c(Cl)ccc(-n3c([C@H](Cc4cc(F)cc(F)c4)NC(=O)Cn4nc(C(F)F)c5c4C(F)(F)[C@@H]4C[C@H]54)nc4nc(OCCOC5CC5)ccc4c3=O)c21` (atropisomer, axis not shown; (P)) [Example 29, N—((S)-1-((3P)-3-(4-chloro-1-methyl-3-(methylsulfonamido)-1H-indazol-7-yl)-7-(2-cyclopropoxyethoxy)-4-oxo-3,4-dihydropyrido[2,3-d]pyrimidin-2-yl)-2-(3,5-difluorophenyl)ethyl)-2-((3bS,4aR)-3-(difluoromethyl)-5,5-difluoro-3b,4,4a,5-tetrahydro-1H-cyclopropa[3,4]cyclopenta[1,2-c]pyrazol-1-yl)acetamide], for which, in data set [1] (Renilla, NL43), the EC50 turned out to be 0.034 nM. Besides, the CC50 at 4 days in data set [2] was more than 100 nM.

Consider `Cn1nc(NS(C)(=O)=O)c2c(Cl)ccc(-n3c([C@H](Cc4cc(F)cc(F)c4)NC(=O)Cn4nc(C(F)F)c5c4C(F)(F)[C@@H]4C[C@H]54)nc4nc(OCc5ccccn5)ccc4c3=O)c21` (atropisomer, axis not shown; (P)) [Example 30, N—((S)-1-((3P)-3-(4-chloro-1-methyl-3-(methylsulfonamido)-1H-indazol-7-yl)-4-oxo-7-(pyridin-2-ylmethoxy)-3,4-dihydropyrido[2,3-d]pyrimidin-2-yl)-2-(3,5-difluorophenyl)ethyl)-2-((3bS,4aR)-3-(difluoromethyl)-5,5-difluoro-3b,4,4a,5-tetrahydro-1H-cyclopropa[3,4]cyclopenta[1,2-c]pyrazol-1-yl)acetamide], for which, in data set [1] (Renilla, NL43), the EC50 amounted to 0.043 nM. Also, the CC50 at 4 days in data set [2] is more than 100 nM.

For the molecule `CO[C@H](C)COc1ccc2c(=O)n(-c3ccc(Cl)c4c(NS(C)(=O)=O)nn(C)c34)c([C@H](Cc3cc(F)cc(F)c3)NC(=O)Cn3nc(C(F)F)c4c3C(F)(F)[C@@H]3C[C@H]43)nc2n1` [Example 31, N—((S)-1-((3P)-3-(4-chloro-1-methyl-3-(methylsulfonamido)-1H-indazol-7-yl)-7-((R)-2-methoxypropoxy)-4-oxo-3,4-dihydropyrido[2,3-d]pyrimidin-2-yl)-2-(3,5-difluorophenyl)ethyl)-2-((3bS,4aR)-3-(difluoromethyl)-5,5-difluoro-3b,4,4a,5-tetrahydro-1H-cyclopropa[3,4]cyclopenta[1,2-c]pyrazol-1-yl)acetamide], the EC50 in data set [1] (Renilla, NL43) amounted to 0.019 nM. This molecule returned a CC50 at 4 days in data set [2] of more than 100 nM.

Consider “N—((S)-1-((3P)-3-(4-chloro-1-(2,2-difluoroethyl)-3-(methylsulfonamido)-1H-indazol-7-yl)-7-(2-cyclopropylethoxy)-4-oxo-3,4-dihydropyrido[2,3-d]pyrimidin-2-yl)-2-(3,5-difluorophenyl)ethyl)-2-((3bS,4aR)-3-(difluoromethyl)-5,5-difluoro-3b,4,4a,5-tetrahydro-1H-cyclopropa[3,4]cyclopenta[1,2-c]pyrazol-1-yl)acetamide [Example 22]”, for which the half-maximal effective concentration (EC50) in data set [1] (setting [4]) was 0.29 nM. For the same molecule, the CC50 in data set [3] is more than 500 nM.

Turning to “N—((S)-1-((3P)-3-(4-chloro-1-methyl-3-(methylsulfonamido)-1H-indazol-7-yl)-4-oxo-7-(pyrimidin-2-ylmethoxy)-3,4-dihydropyrido[2,3-d]pyrimidin-2-yl)-2-(3,5-difluorophenyl)ethyl)-2-((3bS,4aR)-3-(difluoromethyl)-5,5-difluoro-3b,4,4a,5-tetrahydro-1H-cyclopropa[3,4]cyclopenta[1,2-c]pyrazol-1-yl)acetamide [Example 9]”, the EC50 in data set [1] (setting [4]) amounted to 0.03 nM. This molecule had a cytotoxic concentration (CC50) in data set [3] of more than 1000 nM.
